According to patent publication US20010034887A1, “Transformation of guar” (priority 1994, published 2001):
Structures can show the parent of a compound that is named as a salt.

Tested on: guar explants
Test: Agrobacterium-mediated transformation of guar cotyledon explants: selection, shoot harvest and GUS test
Type: cell-based, Cyamopsis tetragonoloba
Description: Cotyledons with about 2 mm of hypocotyl were excised from 12 day old seedlings. The cotyledons were then torn apart using a tweezers to create wound surfaces and placed in the Agrobacterium-suspension for 30 min.
Co-cultivation proceeded for 3 days at 25° C. and a 12 h/12 h day/night regime. After co-culture the explants were washed with 1/10 MS-medium, to which 100 mg/l carbenicillin, 100 mg/l cefotaxime and 1000 mg/l lysozyme had been added, 2-3 times for 45 min. while stirring at 100 rpm.
The explants were transferred to selection medium and incubated as above (25° C., 12 h day/12 h night).
After 4 weeks, shoots larger than 3 mm were harvested and transferred to shoot medium. After 10-14 days the shoots were tested for activity of the reporter gene β-glucuronidase (GUS), see below. GUS-positive shoots were transferred to fresh shoot medium while the GUS-negative shoots were discarded.
After the first harvest, explants (from which shoots had been harvested) were transferred to a second selection medium with a lower kanamycin concentration (50 mg/l) . After another 4 weeks shoots were harvested and GUS-tested. The positive shoots were transferred to fresh medium, while the negatives were discarded.
Tips of young leaves were excised and transferred to a multi-dish well containing 200 μl X-gluc solution. After incubation for 16 h at 35° C. the leaf tips were destained with 96% ethanol and the degree of blue stain was determined under a microscope.

[1] = kanamycin sulfate 125 mg/l in selection medium, 1600 explants, strain EHA 101
[2] = kanamycin sulfate 135 mg/l in selection medium, 1600 explants, strain EHA 101
[3] = kanamycin sulfate 145 mg/l in selection medium, 1600 explants, strain EHA 101
[4] = 0.1-2 mg/l PCIB during selection
[5] = thidiazuron 0.3 mg/l, 742 explants
[6] = thidiazuron 1.0 mg/l, 741 explants
[7] = thidiazuron 3.0 mg/l, 1522 explants
[8] = thidiazuron 4.5 mg/l, 797 explants

CC1(C)S[C@@H]2[C@H](NC(=O)C(C(=O)O)c3ccccc3)C(=O)N2[C@H]1C(=O)O (some centres unmarked) [Carbenicil., carbenicillin]
No. of GUS+ shoots (carbenicillin 800 mg/l, cefotaxime 0, sulbactam 0, 800 explants, EHA 101): 2

NC[C@H]1O[C@H](O[C@H]2[C@H](O)[C@@H](O[C@H]3O[C@H](CO)[C@@H](O)[C@H](N)[C@H]3O)[C@H](N)C[C@@H]2N)[C@H](O)[C@@H](O)[C@@H]1O [Kanamycin sulf., kanamycin sulfate]
regeneration frequencies (100 mg/l kanamycin or less): ~100%
No. of GUS+ shoots [1]: 3
No. of regenerated shoots [1]: 21
No. of GUS+ shoots [2]: 5
No. of regenerated shoots [2]: 19
No. of GUS+ shoots [3]: 8
No. of regenerated shoots [3]: 15
transgenic shoots found at the second harvest (second harvest, kanamycin concentration reduced): About 50%
optimal kanamycin sulfate concentration in the selection medium (selection medium): 145 mg/L

O.O.O.O.O.O.[Cl][Ni][Cl] [NiCl2, 6H2O]
No. of GUS+ shoots (NiCl2, 6H2O 1.0 mg/l with BAP 1.0 mg/l, 1200 explants, EHA 101): 4
No. of GUS+ shoots (NiCl2, 6H2O 1.0 mg/l with BAP 5.0 mg/l, 1200 explants, EHA 101): 4
higher transformation frequency (addition of 1 mg/l NiCl2, 6H2O): 2-4 times

CC(C)(Oc1ccc(Cl)cc1)C(=O)O [PCIB, 2-(p-chlorophenoxy)-2-methylpropionic acid]
amount of callus [4]: reduced the amount of callus significantly
regeneration and number of transgenic shoots [4]: enhanced regeneration and the number of transgenic shoots

CC1(C)[C@H](C(=O)O)N2C(=O)C[C@H]2S1(=O)=O [Sulbactam, sulbactam]
No. of GUS+ shoots (sulbactam 100 mg/l with carbenicillin 50 mg/l and cefotaxime 50 mg/l, 800 explants, EHA 101): 9
No. of GUS+ shoots (sulbactam 100 mg/l with carbenicillin 100 mg/l and cefotaxime 100 mg/l, 800 explants, EHA 101): 5

O=C(Nc1ccccc1)Nc1cnns1 [Thidiazuron, thidiazuron]
subsequent cloning of the transgenic shoots: beneficial for the subsequent cloning of the transgenic shoots
increase of transformation frequencies (TDZ 0.3-3.0 mg/l vs no TDZ): 1.5-1.8 fold
optimum TDZ concentrations in the selection media (selection media): 0.3 to 3.0 mg/L
No. of GUS+ shoots [5]: 8
Transform. freq. (%) [5]: 1.08%
No. of GUS+ shoots [6]: 9
Transform. freq. (%) [6]: 1.21%
No. of GUS+ shoots [7]: 16
Transform. freq. (%) [7]: 1.05%
No. of GUS+ shoots [8]: 5
Transform. freq. (%) [8]: 0.63%

benzyladenine purine [BAP]
total number of regenerated shoots on 5 mg/l BAP compared with 1 mg/l (5 mg/l vs 1 mg/l BAP in selection medium): about twice as high
No. of GUS+ shoots (BAP 1.0 mg/l, NiCl2, 6H2O 0 mg/l, 1200 explants, EHA 101): 1
No. of GUS+ shoots (BAP 5.0 mg/l, NiCl2, 6H2O 0 mg/l, 1200 explants, EHA 101): 2

silver thiosulfate [STS]
No. of GUS+ shoots (STS 2.5 μM, calculated per 1000 explants, EHA 101): 12
No. of GUS+ shoots (STS 5.0 μM, calculated per 1000 explants, EHA 101): 8
No. of GUS+ shoots (STS 10.0 μM, calculated per 1000 explants, EHA 101): 7
shoot quality (presence of STS vs absence): significantly improved shoot quality
